This note sets out measurements from patent publication US11427548B2 (Arvinas Operations, Inc., priority 2015, dated 2022).

The test deals with T1, Androgen Receptor (Homo sapiens, UniProt P10275).
T1 construct: endogenous in cells; host or cells: VCaP cells
T1 sequence (P10275 1-920): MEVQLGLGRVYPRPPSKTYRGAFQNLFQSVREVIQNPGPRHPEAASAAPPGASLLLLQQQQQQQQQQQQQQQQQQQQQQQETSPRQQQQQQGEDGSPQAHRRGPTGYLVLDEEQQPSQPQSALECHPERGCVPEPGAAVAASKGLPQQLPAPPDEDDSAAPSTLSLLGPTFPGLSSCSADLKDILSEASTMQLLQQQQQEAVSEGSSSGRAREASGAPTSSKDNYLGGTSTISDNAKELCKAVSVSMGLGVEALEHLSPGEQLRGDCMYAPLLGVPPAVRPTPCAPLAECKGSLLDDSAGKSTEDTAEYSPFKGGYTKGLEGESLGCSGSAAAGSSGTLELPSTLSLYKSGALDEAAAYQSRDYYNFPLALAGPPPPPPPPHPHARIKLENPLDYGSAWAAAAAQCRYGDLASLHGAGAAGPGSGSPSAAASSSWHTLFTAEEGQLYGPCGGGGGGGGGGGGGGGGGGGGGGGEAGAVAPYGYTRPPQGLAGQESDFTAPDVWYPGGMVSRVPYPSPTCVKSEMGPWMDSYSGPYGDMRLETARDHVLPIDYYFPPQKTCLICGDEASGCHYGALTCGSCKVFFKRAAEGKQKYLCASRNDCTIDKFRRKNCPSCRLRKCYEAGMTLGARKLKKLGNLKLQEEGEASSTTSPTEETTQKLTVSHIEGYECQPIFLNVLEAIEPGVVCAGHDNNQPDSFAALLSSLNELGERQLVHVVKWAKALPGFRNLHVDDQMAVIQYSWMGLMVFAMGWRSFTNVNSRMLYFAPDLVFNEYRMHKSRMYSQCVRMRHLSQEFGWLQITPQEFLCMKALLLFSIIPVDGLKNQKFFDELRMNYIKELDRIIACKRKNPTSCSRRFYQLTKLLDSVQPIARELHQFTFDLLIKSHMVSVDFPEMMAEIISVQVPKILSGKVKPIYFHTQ
Put plainly: Androgen Receptor ELISA assay (PathScan AR ELISA) in VCaP cells: AR degradation, Dmax and DC50. Format: cell-based. Particulars: for DC50: read-out: VCaP DC50; for Dmax: VCaP, read-out: VCaP Dmax (%). The procedure, abridged:
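VCaP cells, 30,000/well, grown ≥3 days in phenol red-free RPMI with 5% charcoal-stripped FBS; compound added in 0.1% DMSO with 0.1 nM R1881, 7 half-log doses, 24 h. Lysate AR quantified by PathScan sandwich ELISA, HRP/TMB read at 450 nm, giving DC50 and Dmax.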
A general note: ELISA stands for enzyme-linked immunosorbent assay.

Structures are written as SMILES. Read-outs that look alike come from different tables or passages of the source.

Take `Cc1ncsc1-c1ccc(CNC(=O)[C@@H]2C[C@@H](O)CN2C(=O)[C@@H](C(C)C)N2Cc3ccc(N4CCN(CCCc5ccc(C(=O)N[C@H]6C(C)(C)[C@H](Oc7ccc(C#N)c(Cl)c7)C6(C)C)cc5)CC4)cc3C2=O)cc1` [Example 773, (2S,4R)-1-((R)-2-(6-(4-(3-(4-(((1r,3r)-3-(3-chloro-4-cyanophenoxy)-2,2,4,4-tetramethylcyclobutyl)carbamoyl)phenyl)propyl)piperazin-1-yl)-1-oxoisoindolin-2-yl)-3-methylbutanoyl)-4-hydroxy-N-(4-(4-methylthiazol-5-yl)benzyl)pyrrolidine-2-carboxamide]: for the setting “VCaP cells, Table 36”, the DC50 (commonly the concentration giving 50% degradation) was above 501 nM and the Dmax (commonly the largest share of the target that was removed) is below 25%.
Taken in the same sequence, the figures for `Cc1ncsc1-c1ccc(CNC(=O)[C@@H]2C[C@@H](O)CN2C(=O)[C@H](C(C)C)N2Cc3ccc(N4CCN(CCCc5ccc(C(=O)N[C@H]6C(C)(C)[C@H](Oc7ccc(C#N)c(Cl)c7)C6(C)C)cc5)CC4)cc3C2=O)cc1` [Example 774, (2S,4R)-1-((S)-2-(6-(4-(3-(4-(((1r,3r)-3-(3-chloro-4-cyanophenoxy)-2,2,4,4-tetramethylcyclobutyl)carbamoyl)phenyl)propyl)piperazin-1-yl)-1-oxoisoindolin-2-yl)-3-methylbutanoyl)-4-hydroxy-N-(4-(4-methylthiazol-5-yl)benzyl)pyrrolidine-2-carboxamide] were above 501 nM and below 25%.
Taken in the same sequence, the figures for `CC(C)(C)[C@H](NC(=O)COCCN1CCN(c2ccc(C(=O)N[C@H]3C(C)(C)[C@H](Oc4ccc(C#N)c(Cl)c4)C3(C)C)cn2)CC1)C(=O)N1C[C@H](O)C[C@H]1C(=O)NCc1cc(F)ccc1F` [Example 775, N-((1r,3r)-3-(3-chloro-4-cyanophenoxy)-2,2,4,4-tetramethylcyclobutyl)-6-(4-(2-(2-(((S)-1-((2S,4R)-2-((2,5-difluorobenzyl)carbamoyl)-4-hydroxypyrrolidin-1-yl)-3,3-dimethyl-1-oxobutan-2-yl)amino)-2-oxoethoxy)ethyl)piperazin-1-yl)nicotinamide] were above 501 nM and below 25%.
Taken in the same sequence, the figures for `CC(C)(C)c1ccc(CNC(=O)[C@@H]2C[C@@H](O)CN2C(=O)[C@@H](NC(=O)COCCN2CCN(c3ccc(C(=O)N[C@H]4C(C)(C)[C@H](Oc5ccc(C#N)c(Cl)c5)C4(C)C)cn3)CC2)C(C)(C)C)cc1` [Example 776, 6-(4-(2-(2-(((S)-1-((2S,4R)-2-((4-(tert-butyl)benzyl)carbamoyl)-4-hydroxypyrrolidin-1-yl)-3,3-dimethyl-1-oxobutan-2-yl)amino)-2-oxoethoxy)ethyl)piperazin-1-yl)-N-((1r,3r)-3-(3-chloro-4-cyanophenoxy)-2,2,4,4-tetramethylcyclobutyl) nicotinamide] were above 501 nM and below 25%.
`Cc1ncsc1-c1ccc([C@H](C)NC(=O)[C@@H]2C[C@@H](O)CN2C(=O)[C@@H](C(C)C)N2Cc3ccc(N4CCN(CCCc5ccc(C(=O)N[C@H]6C(C)(C)[C@H](Oc7ccc(C#N)c(Cl)c7)C6(C)C)cc5)CC4)cc3C2=O)cc1` [Example 777, (2S,4R)-1-((R)-2-(6-(4-(3-(4-(((1r,3r)-3-(3-chloro-4-cyanophenoxy)-2,2,4,4-tetramethylcyclobutyl)carbamoyl)phenyl)propyl)piperazin-1-yl)-1-oxoisoindolin-2-yl)-3-methylbutanoyl)-4-hydroxy-N-((S)-1-(4-(4-methylthiazol-5-yl)phenyl)ethyl)pyrrolidine-2-carboxamide]: the Dmax was below 25%. Moreover, the DC50 (VCaP cells, Table 36) is above 501 nM.
In the case of `Cc1ncsc1-c1ccc([C@H](C)NC(=O)[C@@H]2C[C@@H](O)CN2C(=O)[C@H](C(C)C)N2Cc3ccc(N4CCN(CCCc5ccc(C(=O)N[C@H]6C(C)(C)[C@H](Oc7ccc(C#N)c(Cl)c7)C6(C)C)cc5)CC4)cc3C2=O)cc1` [Example 778, (2S,4R)-1-((S)-2-(6-(4-(3-(4-(((1r,3r)-3-(3-chloro-4-cyanophenoxy)-2,2,4,4-tetramethylcyclobutyl)carbamoyl)phenyl)propyl)piperazin-1-yl)-1-oxoisoindolin-2-yl)-3-methylbutanoyl)-4-hydroxy-N-((S)-1-(4-(4-methylthiazol-5-yl)phenyl)ethyl)pyrrolidine-2-carboxamide], the Dmax was below 25%. In addition, under “VCaP cells, Table 36”, the DC50 was above 501 nM.
In the case of `Cc1ncsc1-c1ccc([C@H](C)NC(=O)[C@@H]2C[C@@H](O)CN2C(=O)[C@@H](NC(=O)CCCCN2CCN(c3ccc(C(=O)N[C@H]4C(C)(C)[C@H](Oc5ccc(C#N)c(Cl)c5)C4(C)C)cn3)CC2)C(C)(C)C)cc1` [Example 779, N-((1r,3r)-3-(3-chloro-4-cyanophenoxy)-2,2,4,4-tetramethylcyclobutyl)-6-(4-(5-(((S)-1-((2S,4R)-4-hydroxy-2-(((S)-1-(4-(4-methylthiazol-5-yl)phenyl)ethyl)carbamoyl)pyrrolidin-1-yl)-3,3-dimethyl-1-oxobutan-2-yl)amino)-5-oxopentyl)piperazin-1-yl)nicotinamide], where the note is “VCaP cells, Table 36”, the DC50 is above 501 nM and the Dmax is below 25%.
In the case of `Cc1ncsc1-c1ccc([C@H](CO)NC(=O)[C@@H]2C[C@@H](O)CN2C(=O)[C@@H](NC(=O)CCCCN2CCN(c3ccc(C(=O)N[C@H]4C(C)(C)[C@H](Oc5ccc(C#N)c(Cl)c5)C4(C)C)cn3)CC2)C(C)(C)C)cc1` [Example 780, N-((1r,3r)-3-(3-chloro-4-cyanophenoxy)-2,2,4,4-tetramethylcyclobutyl)-6-(4-(5-(((S)-1-((2S,4R)-4-hydroxy-2-(((R)-2-hydroxy-1-(4-(4-methylthiazol-5-yl)phenyl)ethyl)carbamoyl)pyrrolidin-1-yl)-3,3-dimethyl-1-oxobutan-2-yl)amino)-5-oxopentyl)piperazin-1-yl)nicotinamide], for the setting “VCaP cells, Table 36”, the DC50 is below 50 nM and the Dmax was in the range of 26 to 50%.
For `Cc1ncsc1-c1ccc(C(CO)NC(=O)[C@@H]2C[C@@H](O)CN2C(=O)[C@@H](NC(=O)CCCN2CCN(c3ccc(C(=O)N[C@H]4C(C)(C)[C@H](Oc5ccc(C#N)c(Cl)c5)C4(C)C)cn3)CC2)C(C)(C)C)cc1` (stereo partly drawn) [Example 781, N-((1r,3r)-3-(3-chloro-4-cyanophenoxy)-2,2,4,4-tetramethylcyclobutyl)-6-(4-(4-(((S)-1-((2S,4R)-4-hydroxy-2-(((R)-2-hydroxy-1-(4-(4-methylthiazol-5-yl)phenyl)ethyl)carbamoyl)pyrrolidin-1-yl)-3,3-dimethyl-1-oxobutan-2-yl)amino)-4-oxobutyl)piperazin-1-yl)nicotinamide] the same measures were above 501 nM and 26 to 50%.
For `Cc1ncsc1-c1ccc([C@H](C)NC(=O)C2C[C@@H](O)CN2C(=O)[C@@H](NC(=O)COCCN2CCCN(c3ccc(C(=O)N[C@H]4C(C)(C)[C@H](Oc5ccc(C#N)c(Cl)c5)C4(C)C)cn3)CC2)C(C)(C)C)cc1` (stereo partly drawn) [Example 782, N-((1r,3r)-3-(3-chloro-4-cyanophenoxy)-2,2,4,4-tetramethylcyclobutyl)-6-(4-(2-(2-(((S)-1-((2S,4R)-4-hydroxy-2-(((S)-1-(4-(4-methylthiazol-5-yl)phenyl)ethyl)carbamoyl)pyrrolidin-1-yl)-3,3-dimethyl-1-oxobutan-2-yl)amino)-2-oxoethoxy)ethyl)-1,4-diazepan-1-yl)nicotinamide] the same measures were below 50 nM and above 71%.
For `Cc1ncsc1-c1ccc([C@H](C)NC(=O)[C@@H]2C[C@@H](O)CN2C(=O)[C@@H](NC(=O)CN2CCN(CCCc3ccc(C(=O)N[C@H]4C(C)(C)[C@H](Oc5ccc(C#N)c(Cl)c5)C4(C)C)cc3)CC2)C(C)(C)C)cc1` [Example 783, (2S,4R)-1-((S)-2-(2-(4-(3-(4-(((1r,3r)-3-(3-chloro-4-cyanophenoxy)-2,2,4,4-tetramethylcyclobutyl)carbamoyl)phenyl)propyl)piperazin-1-yl)acetamido)-3,3-dimethylbutanoyl)-4-hydroxy-N-((S)-1-(4-(4-methylthiazol-5-yl)phenyl)ethyl)pyrrolidine-2-carboxamide] the same measures were below 50 nM and above 71%.
As to `COc1cc(C#N)ccc1[C@H](C)NC(=O)[C@@H]1C[C@@H](O)CN1C(=O)[C@@H](NC(=O)CCCCN1CCN(c2ccc(C(=O)N[C@H]3C(C)(C)[C@H](Oc4ccc(C#N)c(Cl)c4)C3(C)C)cn2)CC1)C(C)(C)C` [Example 784, N-((1r,3r)-3-(3-chloro-4-cyanophenoxy)-2,2,4,4-tetramethylcyclobutyl)-6-(4-(5-(((S)-1-((2S,4R)-2-(((S)-1-(4-cyano-2-methoxyphenyl)ethyl)carbamoyl)-4-hydroxypyrrolidin-1-yl)-3,3-dimethyl-1-oxobutan-2-yl)amino)-5-oxopentyl)piperazin-1-yl)nicotinamide], under “VCaP cells, Table 36”, the DC50 was above 501 nM and the Dmax is below 25%.
